Source: patent US20240091169A1, “POL[…] FOR TREATING INFLAMMATORY DISEASES” (UNIVERSITY OF SOUTH CAROLINA, priority 2022, published 2024)

Experiments:
AOM/DSS-induced CRC = experiment: AOM/DSS mouse model of colorectal cancer (CRC); assay type: in vivo, C57BL/6 mice
[1] = test system: bone marrow derived macrophages (BMDMs); experiment: CCK-8 cell viability of BMDMs; assay type: cell-based, C57BL/6 mice; conditions: Mus musculus, BMDM, 24 hr, read-out: IC50, cell survival of BMDMs
Description: (§1) Bone marrow-derived macrophages (BMDMs) were isolated from healthy 10-14-week-old C57BL/6 male mice. Briefly, mice were euthanized by isoflurane overdose. Femurs were cleared of muscle and debris. The epiphyses of the femurs were cut and placed knee-down and spun down in a 1.5 mL tube. Bone marrow was collected and resuspended in complete DMEM (cDMEM; 10% FBS, 1% penicillin/streptomycin) and passed through two 100 μm strainers. Cells were plated on an untreated 10 cm dish in cDMEM and allowed to incubate at 37° C. for 4 hr. Adherent/mature monocytes and dendritic cells were discarded, while floating/immature monocytes were collected. Cells were subjected to RBC lysis and resuspended in bone marrow maintenance media (BMMM; 20% L929-conditioned media in cDMEM). Cells were then plated on surface-treated 6-well plates at a 250 k cells/well seeding density. On day 3, fresh BMMM was added. On day 5, media was aspirated and fresh BMMM was added. […] Cells were stained and analyzed for macrophages via flow cytometry as described above with the addition of analyzing macrophage phenotypes. From the CD11b^+CD68^+ macrophage population, macrophage phenotypes were determined based on CD206 and CD11c expression. […] All cells were measured using a FACS Aria II (BD) and analyzed using FlowJo (BD Biosciences). […]

C26 CRC cells = experiment: CCK-8 cell viability of C26 CRC cells; assay type: cell-based; conditions: 24 hr, read-out: IC50, anti-proliferative activity against C26 CRC cells
Description: BMDMs were isolated as described above. On day 6 of maturation, BMDMs were subjected to 7 concentrations of PA to assess cell death: 0.001, 0.01, 0.1, 1.0, 5.0, 10.0, and 100.0 μM. On day 7 (i.e., 24 hr-post PA treatment), CCK-8 (Dojindo; Cat #CK04) assays were completed per manufacturer's instructions. C26 CRC cells were also subjected to these 7 concentrations of PA for 24 hr to assess cell death using CCK-8. Three independent experiments were carried out.

[2] = test system: BMDMs incubated with IL-4 (M2 media); experiment: M2 macrophage polarization of BMDMs with IL-4 (flow cytometry); assay type: cell-based, C57BL/6 mice; conditions: 1 μM PA, M2 media (IL-4), 24 hr, vs VEH
Description: Bone marrow-derived macrophages (BMDMs) were isolated from healthy 10-14-week-old C57BL/6 male mice. Briefly, mice were euthanized by isoflurane overdose. Femurs were cleared of muscle and debris. The epiphyses of the femurs were cut and placed knee-down and spun down in a 1.5 mL tube. Bone marrow was collected and resuspended in complete DMEM (cDMEM; 10% FBS, 1% penicillin/streptomycin) and passed through two 100 μm strainers. Cells were plated on an untreated 10 cm dish in cDMEM and allowed to incubate at 37° C. for 4 hr. Adherent/mature monocytes and dendritic cells were discarded, while floating/immature monocytes were collected. Cells were subjected to RBC lysis and resuspended in bone marrow maintenance media (BMMM; 20% L929-conditioned media in cDMEM). Cells were then plated on surface-treated 6-well plates at a 250 k cells/well seeding density. On day 3, fresh BMMM was added. On day 5, media was aspirated and fresh BMMM was added. For M2 macrophage polarization experiments, 6-day mature macrophages were given either cDMEM+VEH, M2 media (cDMEM with 10 ng/mL IL-4)+VEH, or M2 media+1 μM PA. Cells were incubated for 24 hr. For C26 colon tumor conditioned media (C26 CM) experiments, 6-day mature macrophages were given either serum-free media (SFM)+VEH, 33% C26-conditioned media (C26 CM)+VEH, or 33% C26 CM+1, 2.5, or 5 μM PA. Cells were incubated for 48 hr. After incubation with these different treatments, cells were washed twice with PBS and incubated with 5 mM EDTA PBS at 4° C. for 20 min. Cells were then gently scraped and transferred into flow tubes, spun at 1600 rpm at 4° C. for 5 min, and washed in PBS before antibody staining. Cells were stained and analyzed for macrophages via flow cytometry as described above with the addition of analyzing macrophage phenotypes. From the CD11b^+CD68^+ macrophage population, macrophage phenotypes were determined based on CD206 and CD11c expression. […] All cells were measured using a FACS Aria II (BD) and analyzed using FlowJo (BD Biosciences). […]

[3] = test system: BMDMs treated with C26 CM; experiment: Survival of BMDMs cultured with C26 tumor conditioned media; assay type: cell-based, C57BL/6 mice; conditions: 48 hr
Description: as §1

[4] = test system: BMDMs cultured with C26 CM; experiment: Macrophage polarization of BMDMs cultured with C26 CM (flow cytometry); assay type: cell-based, C57BL/6 mice; conditions: 48 hr, PA vs VEH
Description: Bone marrow-derived macrophages (BMDMs) were isolated from healthy 10-14-week-old C57BL/6 male mice. Briefly, mice were euthanized by isoflurane overdose. Femurs were cleared of muscle and debris. The epiphyses of the femurs were cut and placed knee-down and spun down in a 1.5 mL tube. Bone marrow was collected and resuspended in complete DMEM (cDMEM; 10% FBS, 1% penicillin/streptomycin) and passed through two 100 μm strainers. Cells were plated on an untreated 10 cm dish in cDMEM and allowed to incubate at 37° C. for 4 hr. Adherent/mature monocytes and dendritic cells were discarded, while floating/immature monocytes were collected. Cells were subjected to RBC lysis and resuspended in bone marrow maintenance media (BMMM; 20% L929-conditioned media in cDMEM). Cells were then plated on surface-treated 6-well plates at a 250 k cells/well seeding density. On day 3, fresh BMMM was added. On day 5, media was aspirated and fresh BMMM was added. For M2 macrophage polarization experiments, 6-day mature macrophages were given either cDMEM+VEH, M2 media (cDMEM with 10 ng/mL IL-4)+VEH, or M2 media+1 μM PA. Cells were incubated for 24 hr. For C26 colon tumor conditioned media (C26 CM) experiments, 6-day mature macrophages were given either serum-free media (SFM)+VEH, 33% C26-conditioned media (C26 CM)+VEH, or 33% C26 CM+1, 2.5, or 5 μM PA. Cells were incubated for 48 hr. After incubation with these different treatments, cells were washed twice with PBS and incubated with 5 mM EDTA PBS at 4° C. for 20 min. Cells were then gently scraped and transferred into flow tubes, spun at 1600 rpm at 4° C. for 5 min, and washed in PBS before antibody staining. Cells were stained and analyzed for macrophages via flow cytometry as described above with the addition of analyzing macrophage phenotypes. From the CD11b^+CD68^+ macrophage population, macrophage phenotypes were determined based on CD206 and CD11c expression. CD206^−CD11c^− cells were identified as M0 macrophages; CD206^−CD11c^+ as M1 macrophages; CD206^+CD11c^− cells as M2 macrophages; CD206^+CD11c^+ as M1-M2 transitional macrophages. All cells were measured using a FACS Aria II (BD) and analyzed using FlowJo (BD Biosciences). Three independent experiments were carried out for each in vitro assessment.

[5] = females, males, and sexes combined, vs VEH, p≤0.05
[6] = proximal colon (tumors intact) RT-qPCR, vs VEH, p≤0.05
[7] = proximal colon RT-qPCR, vs VEH, p≤0.05
[8] = proximal colon qRT-PCR, vs VEH, p≤0.05
[9] = removed tumors RT-PCR, vs VEH, p≤0.05

C=CC(O)C#CC#CC/C=C\CCCCCCC (stereo in doubt) [PA, 3(R)-(9Z)-heptadeca-1,9-dien-4,6-diyn-3-ol]
survival (AOM/DSS-induced CRC; 2.5 mg/kg p.o. 3x/week, 12 weeks, vs AOM/DSS+VEH, FIG. 1B): appears to improve survival, although non-significant | goblet cells per crypt (AOM/DSS-induced CRC; Alcian Blue, distal colon, no difference between CF and PA): completely rescued | Foxp3 gene expression in tumors (AOM/DSS-induced CRC; RT-qPCR, vs VEH, p≤0.05): decrease | colonoscopy score: focal lesions (AOM/DSS-induced CRC; after 12 weeks, vs VEH): no significant difference | colonoscopy score: perianal findings (AOM/DSS-induced CRC; after 12 weeks, vs VEH, p=0.08): no significant difference | colonoscopy score: inflammation (AOM/DSS-induced CRC; after 12 weeks, vs VEH, p≤0.05): significant reductions | colonoscopy score: intestinal bleeding (AOM/DSS-induced CRC; after 12 weeks, vs VEH, p≤0.05): significant reductions | colonoscopy score: transparency of the colonic wall (AOM/DSS-induced CRC; after 12 weeks, vs VEH, p≤0.05): significant reduction (i.e., improvement) | colonoscopy tumor score (AOM/DSS-induced CRC; after 12 weeks, vs VEH, p≤0.05): significantly reduced | abundance of CD11b+CD68+ macrophages in colonic lamina propria (AOM/DSS-induced CRC; colons with tumors intact, flow cytometry, vs VEH, p≤0.05): significantly decreased | submucosal invasion and destruction of the crypts (H&E) (AOM/DSS-induced CRC; distal colon, vs VEH): did not appear as severe | large tumors (>2 mm) (AOM/DSS-induced CRC; females and sexes combined, vs VEH, p≤0.05): significant reduction | number of medium sized tumors (1-2 mm) (AOM/DSS-induced CRC; [5]): significantly reduced | total number of tumors (AOM/DSS-induced CRC; [5]): significantly reduced | abundance of neutrophils in the colon (AOM/DSS-induced CRC; flow cytometry, n=2-3/group, statistics not performed): appeared to protect against the increased abundance | relative abundance of macrophages in colons following tumor removal (AOM/DSS-induced CRC; flow cytometry, increase with VEH vs CF, p≤0.05): ameliorated | F4/80 immunofluorescence staining in colonic tumors (AOM/DSS-induced CRC; pan macrophage marker, n=3/group): reduction in macrophages | CD68 gene expression (AOM/DSS-induced CRC; [6]): significantly suppressed | MSR-1 gene expression (AOM/DSS-induced CRC; [6]): significantly suppressed | mannose receptor C type 1 (Mrc1) gene expression (AOM/DSS-induced CRC; [6]): significantly suppressed | IL-1β gene expression (AOM/DSS-induced CRC; [7]): significant downregulation | IL-6 gene expression (AOM/DSS-induced CRC; [7]): significant downregulation | IL-10 gene expression (AOM/DSS-induced CRC; [7]): significantly downregulated | IL-13 gene expression (AOM/DSS-induced CRC; [7]): significantly downregulated | TGF-β1 gene expression (AOM/DSS-induced CRC; [7]): significantly downregulated | neutrophil marker Ly6g gene expression (AOM/DSS-induced CRC; [7]): significantly downregulated | Muc1 gene expression (AOM/DSS-induced CRC; proximal colon qRT-PCR, vs VEH, p=0.08): slightly but non-significantly reduced | Muc2 gene expression (AOM/DSS-induced CRC; [8]): significantly increased | occludin (OCLN) gene expression (AOM/DSS-induced CRC; [8]): upregulated | tight junction protein 3 (TJP3) gene expression (AOM/DSS-induced CRC; [8]): upregulated | gene expression of pro-apoptotic marker Bax in colonic tumors (AOM/DSS-induced CRC; qRT-PCR, vs VEH, p=0.09): increased, although non-significant | TGF-01 gene expression in tumors (AOM/DSS-induced CRC; removed tumors RT-PCR, vs VEH, p=0.08): suppressed | CD68 gene expression in tumors (AOM/DSS-induced CRC; [9]): significantly suppressed | IL-6 gene expression in tumors (AOM/DSS-induced CRC; [9]): suppressed | IL-13 gene expression in tumors (AOM/DSS-induced CRC; [9]): suppressed | small tumors (≤1 mm) (AOM/DSS-induced CRC; sexes combined, reduction observed, p=0.08): did not reach statistical significance | colonic TCRβ+FoxP3+ T-regs (AOM/DSS-induced CRC; tumor-removed colons, flow cytometry, between VEH and PA): no difference | percentage of Ki67 positive cells in colonic tumors (AOM/DSS-induced CRC; vs VEH, p≤0.05): significant decreased | percentage of apoptotic cells (TUNEL) in colonic tumors (AOM/DSS-induced CRC; vs VEH, p≤0.05): significant increase | overall symptom score (bodyweight loss, stool consistency, rectal bleeding) (AOM/DSS-induced CRC; weeks 1-3, 5-7 and 10-12, vs VEH, FIG. 1C): significantly suppressed | circulating lymphocytes (AOM/DSS-induced CRC; whole blood, end of study, PA vs VEH): no difference between VEH- and PA-treated groups | total WBCs (AOM/DSS-induced CRC; whole blood, end of study, across groups): no change | circulating monocytes (AOM/DSS-induced CRC; whole blood, end of study, increase with VEH vs CF, p≤0.05): rescued | neutrophil to lymphocyte ratio (NLR) (AOM/DSS-induced CRC; whole blood, end of study, p≤0.05): decrease | circulating neutrophils (AOM/DSS-induced CRC; whole blood, end of study, vs VEH, p≤0.05): ameliorate the significant increase | IC50 [1]: ~7 µM | IC50 (C26 CRC cells): 1 µM | naïve M0 macrophages ([2]; p=0.06): increased | M2 macrophages ([2]; p=0.08): non-significantly reduced | transitional M1-M2 macrophages ([2]; p=0.12): non-significantly reduced | reduction of macrophage survival ([3]; 1 μM PA): 31.5% | reduction of macrophage survival ([3]; 5 μM PA): 45.3% | relative abundance of M0 macrophages [4]: No significant differences | relative abundance of M1-M2 macrophages [4]: No significant differences | relative abundance of M1 macrophages [4]: No significant differences | relative abundance of pro-tumoral M2 macrophages ([4]; p≤0.05): significantly reduced
